In patent US20180092923A1, “METHODS FOR TREATING LYSOSOMAL STORAGE DISORDERS” (BIOMARIN PHARMACEUTICAL INC., priority 2015, published 2018):

System: GM01896 cells
Assay: MPS II cellular assay
Format: cell-based
Conditions: Homo sapiens, Fibroblast; dermal fibroblasts from an individual with MPS II (GM01896); heparan sulfate disaccharide I2a4, I2a6, I2S0 and/or I2S6 detected by LC-MS
Protocol: Dermal fibroblasts from humans with an MPS disorder and from healthy donors were grown. Cells were expanded and kept in culture for analysis.
Human foreskin fibroblasts are obtained from the American Type Culture Collection (CRL-1634). […] Sulfamidase activity in cell extracts is measured with 4-methylumbelliferyl-α-D-N-sulfoglucosaminide according the vendors instructions substituting Tris-acetate buffer (pH 6.5; Moscerdam). […]
Cell monolayers are washed with phosphate buffered saline and detached by treatment with GIBCO trypsin-EDTA solution (Invitrogen). […] The amount of protein is determined by bicinchoninic acid (BCA assay, Thermo Scientific). […]
Enzymatically depolymerized GAG preparations are differentially mass labeled by reductive amination with [^12C6]aniline. […] Samples are then analyzed by LC-MS using an LTQ Orbitrap Discovery electrospray ionization mass spectrometer (Thermo Scientific) equipped with quaternary HPLC pump (Finnigan Surveyor MS pump) and a reverse-phase capillary column.
For MPS II, GM01896 cells were treated with a compound described herein and the heparan sulfate disaccharide detected was [^12C6]aniline-tagged I2a4, I2a6, I2S0 and/or I2S6. […] Cell viability was monitored using alamar blue or ATP quantification. IC50's were calculated using curve fitting within the ChemInnovation CBIS database system.

## Cc1cccc(/C=N/Nc2cc(N3CCOCC3)nc(OCCc3ccccn3)n2)c1 [Compound 11, (E)-4-(6-(2-(3-methylbenzylidene)hydrazinyl)-2-(2-(pyridin-2-yl)ethoxy)pyrimidin-4-yl)morpholine]
  IC50: 170 nM
